Laboratory results from paper PMC11062899, “De novo development of small cyclic peptides that are orally bioavailable” (Nature Chemical Biology, 2023).
Values joined by “and” are separate entries in the source; they are usually repeats but may differ in a detail not shown here. Equal entries are not always repeated. Where two headings read alike, the source gives them in different places.

Legend:
[1] = molecular target: human α-thrombin (Homo sapiens, UniProt P00734); test: Protease inhibition, Ki for human α-thrombin (fluorogenic substrate Z-Gly-Gly-Arg-AMC); format: biochemical; conditions: for Human alpha thrombin inhibition, slope normalized to DMSO: replicates R1-R3
Procedure: (§1) The inhibition constants (Ki) of cyclic peptides were calculated by measuring thrombin inhibition in the presence of different concentrations of the cyclic peptides. […] Human α-thrombin (Molecular Innovations) and rat α-thrombin (Molecular Innovations) were used at final concentrations of 2 nM and 3 nM, respectively, and fluorogenic substrate (Z-Gly-Gly-Arg-AMC, Bachem) was used at a concentration of 50 μM. Enzymatic activity was determined by measuring fluorescent gain on a Tecan Infinite M200 Pro microplate reader (excitation: 360 nm, emission: 465 nm) or a PHERAstar FSX microplate reader (excitation: 380 nm, emission: 440 nm) for 30 min at 25 °C with a fluorescent readout every 3 min. The two instruments were controlled with Tecan Infinite M200 Pro instrument software (iControl, version 1.12) and PHERAstar FSX software (version 5.70, edition 8), respectively. Protease inhibition was calculated by comparing the enzymatic activity to a control without cyclic peptide.
(§2) Half maximal inhibitory concentration (IC50) values were determined using a four-parameter logistic regression model in GraphPad Prism 9 to fit sigmoidal curves to the acquired data points according to equation (2) below.2 y=b+a−b/1+10^(logIC50−x)p where a and b represent the measured inhibition maximum and minimum, respectively; x is the logarithm of peptide concentration; y is the thrombin activity compared to a control without the cyclic peptide; and p is the Hill coefficient.
(§3) Ki values were calculated using the IC50 and the Cheng–Prusoff equation (equation (3)).3 Ki=IC50/1+S0/Km where Km is the Michaelis–Menten constant of the enzyme for the substrate used in the assay, and [S]0 is the initial substrate concentration.

[2] = molecular target: T1, rat α-thrombin (Rattus norvegicus, UniProt P18292); test: Protease inhibition, Ki for rat α-thrombin (fluorogenic substrate Z-Gly-Gly-Arg-AMC); format: biochemical; conditions: for Rat alpha thrombin inhibition, slope normalized to DMSO: replicates R1-R3
T1 construct: rat α-thrombin (Molecular Innovations) were used at final concentrations of 2 nM and 3 nM; purchased Molecular Innovations
Procedure: as §1, §2, §3

[3] = Passive artificial membrane permeability (PAMPA);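 as to Permeability% Average: top well sample relative to theoretical equilibrium sample by TIC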
[4] = peptide concentration 1.00E+02 uM
[5] = peptide concentration 1.19E-05 uM
[6] = peptide concentration 1.22E-02 uM
[7] = peptide concentration 1.25E+01 uM
[8] = peptide concentration 1.53E-03 uM
[9] = peptide concentration 1.56E+00 uM
[10] = peptide concentration 1.91E-04 uM
[11] = peptide concentration 1.95E-01 uM
[12] = peptide concentration 2.38E-05 uM
[13] = peptide concentration 2.44E-02 uM
[14] = peptide concentration 2.50E+01 uM
[15] = peptide concentration 3.05E-03 uM
[16] = peptide concentration 3.12E+00 uM
[17] = peptide concentration 3.81E-04 uM
[18] = peptide concentration 3.91E-01 uM
[19] = peptide concentration 4.77E-05 uM
[20] = peptide concentration 4.88E-02 uM
[21] = peptide concentration 5.00E+01 uM
[22] = peptide concentration 6.10E-03 uM
[23] = peptide concentration 6.25E+00 uM
[24] = peptide concentration 7.63E-04 uM
[25] = peptide concentration 7.81E-01 uM
[26] = peptide concentration 9.54E-05 uM
[27] = peptide concentration 9.77E-02 uM

Ki ([1]; average of R1-R3, read-out: Human alpha thrombin inhibition, Ki Average): 4.24 µM | Human alpha thrombin inhibition, slope normalized to DMSO [1, 4]: 7.2 and 18.3 and 14.2 | Human alpha thrombin inhibition, slope normalized to DMSO [1, 5]: 106.2 and 105.2 and 96.5 | Human alpha thrombin inhibition, slope normalized to DMSO [1, 6]: 97.4 and 143.9 and 87.6 | Human alpha thrombin inhibition, slope normalized to DMSO [1, 7]: 39.9 and 42.6 and 31.3 | Human alpha thrombin inhibition, slope normalized to DMSO [1, 8]: 107.6 and 85.1 and 100.8 | Human alpha thrombin inhibition, slope normalized to DMSO [1, 9]: 63.5 and 67.4 and 86.8 | Human alpha thrombin inhibition, slope normalized to DMSO [1, 10]: 94.4 and 101.9 and 82.4 | Human alpha thrombin inhibition, slope normalized to DMSO [1, 11]: 80.8 and 88.6 and 87.2 | Human alpha thrombin inhibition, slope normalized to DMSO [1, 12]: 104.6 and 100.1 and 103.6 | Human alpha thrombin inhibition, slope normalized to DMSO [1, 13]: 87.3 and 61.5 and 110.7 | Human alpha thrombin inhibition, slope normalized to DMSO [1, 14]: 18.7 and 30.4 and 26.6 | Human alpha thrombin inhibition, slope normalized to DMSO [1, 15]: 107.4 and 96.1 and 108.0 | Human alpha thrombin inhibition, slope normalized to DMSO [1, 16]: 66.3 and 72.5 and 68.3 | Human alpha thrombin inhibition, slope normalized to DMSO [1, 17]: 108.2 and 71.6 and 89.8 | Human alpha thrombin inhibition, slope normalized to DMSO [1, 18]: 98.6 and 87.2 and 97.0 | Human alpha thrombin inhibition, slope normalized to DMSO [1, 19]: 102.6 and 101.4 and 90.5 | Human alpha thrombin inhibition, slope normalized to DMSO [1, 20]: 86.2 and 70.0 and 72.9 | Human alpha thrombin inhibition, slope normalized to DMSO [1, 21]: 22.0 and 20.2 and 22.5 | Human alpha thrombin inhibition, slope normalized to DMSO [1, 22]: 107.1 and 94.4 and 65.9 | Human alpha thrombin inhibition, slope normalized to DMSO [1, 23]: 53.3 and 30.4 and 58.6 | Human alpha thrombin inhibition, slope normalized to DMSO [1, 24]: 101.4 and 104.3 and 107.6 | Human alpha thrombin inhibition, slope normalized to DMSO [1, 25]: 93.7 and 88.2 and 91.3 | Human alpha thrombin inhibition, slope normalized to DMSO [1, 26]: 107.7 and 104.4 and 105.3 | Human alpha thrombin inhibition, slope normalized to DMSO [1, 27]: 100.1 and 100.4 and 85.5 | IC50 ([1]; single replicates R1-R3, read-out: Human alpha thrombin inhibition, IC50): 6.06 µM and 4.33 µM and 6.11 µM | Ki ([2]; average of R1-R3, read-out: Rat alpha thrombin inhibition, Ki Average): 1.19 µM | Rat alpha thrombin inhibition, slope normalized to DMSO [2, 4]: 8.6 and 7.4 and 11.4 | Rat alpha thrombin inhibition, slope normalized to DMSO [2, 5]: 107.5 and 103.5 and 101.6 | Rat alpha thrombin inhibition, slope normalized to DMSO [2, 6]: 107.3 and 99.3 and 79.0 | Rat alpha thrombin inhibition, slope normalized to DMSO [2, 7]: 23.0 and 17.3 and 19.0 | Rat alpha thrombin inhibition, slope normalized to DMSO [2, 8]: 108.1 and 101.8 and 103.2 | Rat alpha thrombin inhibition, slope normalized to DMSO [2, 9]: 38.0 and 68.3 and 64.4 | Rat alpha thrombin inhibition, slope normalized to DMSO [2, 10]: 111.1 and 96.6 and 97.0 | Rat alpha thrombin inhibition, slope normalized to DMSO [2, 11]: 80.3 and 102.2 and 95.7 | Rat alpha thrombin inhibition, slope normalized to DMSO [2, 12]: 106.4 and 99.5 and 91.3 | Rat alpha thrombin inhibition, slope normalized to DMSO [2, 13]: 104.4 and 97.3 and 93.2 | Rat alpha thrombin inhibition, slope normalized to DMSO [2, 14]: 14.0 and 11.2 and 8.1 | Rat alpha thrombin inhibition, slope normalized to DMSO [2, 15]: 71.4 and 100.8 and 98.3 | Rat alpha thrombin inhibition, slope normalized to DMSO [2, 16]: 53.4 and 47.3 and 48.9 | Rat alpha thrombin inhibition, slope normalized to DMSO [2, 17]: 103.9 and 95.9 and 106.5 | Rat alpha thrombin inhibition, slope normalized to DMSO [2, 18]: 72.4 and 80.6 and 86.0 | Rat alpha thrombin inhibition, slope normalized to DMSO [2, 19]: 110.4 and 101.0 and 101.1 | Rat alpha thrombin inhibition, slope normalized to DMSO [2, 20]: 95.5 and 75.4 and 93.2 | Rat alpha thrombin inhibition, slope normalized to DMSO [2, 21]: 9.4 and 9.6 and 8.3 | Rat alpha thrombin inhibition, slope normalized to DMSO [2, 22]: 86.0 and 97.7 and 122.2 | Rat alpha thrombin inhibition, slope normalized to DMSO [2, 23]: 35.0 and 30.8 and 29.6 | Rat alpha thrombin inhibition, slope normalized to DMSO [2, 24]: 106.2 and 91.0 and 101.5 | Rat alpha thrombin inhibition, slope normalized to DMSO [2, 25]: 51.1 and 75.3 and 70.4 | Rat alpha thrombin inhibition, slope normalized to DMSO [2, 26]: 108.0 and 102.0 and 103.8 | Rat alpha thrombin inhibition, slope normalized to DMSO [2, 27]: 101.3 and 96.8 and 84.0 | IC50 ([2]; single replicates R1-R3, read-out: Rat alpha thrombin inhibition, IC50): 1.34 µM and 2.67 µM and 2.44 µM | PAMPA permeability: % permeability ([3]; 50 μM, 12–18 h, acceptor concentration relative to equilibrium): 70 ± 4% | Permeability% (single replicates R1–R3) ([3]; 50 μM, 13 h (Fig. 5d)): 73.98% and 66.95% and 68.74% | Permeability% Average ([3]; 50 μM, 13 h (Fig. 5d)): 69.9% | Papp at 50 μM ([3]; PAMPA, pH 7.4): 11.5 ×10⁻⁶ cm/s
Structure (SMILES): O=C1C[C@H]2CCCN2C(=O)[C@H](Cc2ccccc2)NC(=O)[C@@H](NC(=O)c2ccc(Cl)s2)CCC=CCCN1 [compound 39]
Ki ([1]; single replicates R1-R3, read-out: Human alpha thrombin inhibition, Ki): 4.67 µM (2×) and 3.34 µM (2×) and 4.71 µM (2×) | Ki ([2]; single replicates R1-R3, read-out: Rat alpha thrombin inhibition, Ki): 741 nM (2×) and 1.48 µM (2×) and 1.35 µM (2×)
